Reference: PMC4861708 (Frontiers in Cell and Developmental Biology, 2016)
Where a SMILES comes first, the peptide text is derived from it. [ ]: non-standard residue; d: D form. The star is where a group is joined. Orn(α-tetramethylguanidino) = CN(C)C(=N[C@@H](CCCN)C(=O)*)N(C)C; Orn = NCCC[C@H](N)C(=O)O

Assays:
[1] = Quartz crystal microbalance, membrane interaction; assay type: binding
Description: Data were acquired with the Q-Sense E4 system (Q-sense, Sweden using polished, gold-coated, AT-cut quartz sensors with a fundamental frequency of ca. 5 MHz (Q-Sense, Västra Frölunda, Sweden) (Mechler et al., [2007]; McCubbin et al., [2011]). Briefly, sensors were cleaned with hydrogen peroxide (6% w/v) and aqueous ammonia (5.6% w/v) for 20 min (70–75°C), washed with water, and then activated with 3-mercaptopropionic acid (1 mmol/L in isopropanol) overnight. Liposomes consisting of DMPC and DMPG (molar ratio of 4:1) were deposited onto the sensors, washed with “high salt” PBS (20 mmol/L potassium phosphate, 0.1 mol/L NaCl, pH 6.9) and then with “low salt” PBS (10 mmol/L potassium phosphate, 30 mmol/L NaCl, pH 6.9). The system was equilibrated at 19.1 ± 0.1°C with “high salt” PBS, prior to the introduction of peptide solutions (2; 5; 10 and 20 μmol/L, 1 mL each in “high salt” PBS) at a flow rate of 50 μL/min over 20 min followed by an incubation, without any flow. Afterwards the “high salt” PBS was again introduced at 300 μL/min to determine if any surface materials could be removed from the sensor. Changes in the sensor frequency (Δf) and dissipation (ΔD) were monitored for the third, fifth, seventh, and ninth harmonic using Q-Soft (Q-Sense) and analyzed using Origin 8 software.

P. aeruginosa DSM 1117 = experiment: Transmission electron microscopy, morphological changes; assay type: cell-based, Pseudomonas aeruginosa; conditions: 1 h
Description: Peptide-bacteria mixtures were fixed (2% glutaraldehyde, 5 mmol/L CaCl2, 10 mmol/L MgCl2 in 0.1 mol/L sodium cacodylate buffer, pH 7.4) overnight at 4°C. […] Samples were rinsed with distilled water (5 × 10 min), incubated with aqueous uranylacetate (0.5% w/v) for 1 h at 4°C, washed with distilled water (3 × 10 min), and embedded in Epon. The hardened blocks were sectioned (50 nm) on a UCT ultramicrotome (Leica, Vienna, Austria), stained with uranyl acetate and lead citrate on an AC20 system (Leica), and visualized at a Tecnai 12 electron microscope (FEI, Eindhoven, The Netherlands) at 80 kV. Morphological effects were quantified on average for 25 cells per condition.

in vitro = conditions: mouse, mouse serum

## CC[C@H](C)[C@H](NC(=O)[C@H](Cc1ccc(O)cc1)NC(=O)[C@@H](NC(=O)[C@@H]1CCCN1C(=O)[C@H](CCCNC(=N)N)NC(=O)[C@H](CC(N)=O)NC(=O)[C@H](CC(N)=O)NC(=O)[C@H](CCCN)N=C(N(C)C)N(C)C)C(C)C)C(=O)N1CCC[C@H]1C(=O)N[C@@H](CCCNC(=N)N)C(=O)N1CCC[C@H]1C(=O)N[C@@H](CCCNC(=N)N)C(=O)N1CCC[C@H]1C(=O)N1CCC[C@H]1C(=O)N[C@@H](Cc1c[nH]cn1)C(=O)N1CCC[C@H]1C(=O)N[C@@H](CCCNC(=N)N)C(=O)N[C@@H](CC(C)C)C(=O)O [Api137, gu-ONNRPVYIPRPRPPHPRL-OH, reference compound] ({Orn(α-tetramethylguanidino)}-NNRPVYIPRPRPPHPRL-OH)
[1]; 2-20 μmol/L, incubation period ii
  QCM change in dissipation (ΔD): No change
[1]; period iii, DMPC:DMPG 4:1
  QCM frequency loss upon washing with PBS buffer: ~ 2 Hz
P. aeruginosa DSM 1117; 32 µg/mL
  Cells spongy: 0%
  DNA/ribosomes relocalization: +++, extremely relocalized: 0%
  DNA/ribosomes relocalization: +, starting: 43%
  DNA/ribosomes relocalization: -, no: 40%
  Membrane: b, broken: 0%
  Membrane: i, intact: 100%
  Membrane: r, ruptured: 0%
  Ribosome clustering: +++, extremely clustered: 0%
  Ribosome clustering: ++, clustered: 0%
  Ribosome clustering: +, starting: 63%
  Ribosome clustering: -, no: 37%
  Vesicle release: 43%
  dissociated Fragments: ++, long and thin: 0%
  dissociated Fragments: -, no: 87%
  dissociated Fragments: LV, large vesicles: 0%
P. aeruginosa DSM 1117; 128 µg/mL
  Cells spongy: 0%
  DNA/ribosomes relocalization: +++, extremely relocalized: 0%
  DNA/ribosomes relocalization: +, starting: 37%
  DNA/ribosomes relocalization: -, no: 47%
  Membrane: b, broken: 0%
  Membrane: i, intact: 100%
  Membrane: r, ruptured: 0%
  Ribosome clustering: +++, extremely clustered: 0%
  Ribosome clustering: ++, clustered: 0%
  Ribosome clustering: +, starting: 57%
  Ribosome clustering: -, no: 43%
  Vesicle release: 47%
  dissociated Fragments: ++, long and thin: 3%
  dissociated Fragments: +, small and thin: 10%
  dissociated Fragments: -, no: 87%
  dissociated Fragments: LV, large vesicles: 0%
P. aeruginosa DSM 1117; 512 µg/mL
  Cells spongy: 0%
  DNA/ribosomes relocalization: +++, extremely relocalized: 0%
  DNA/ribosomes relocalization: +, starting: 40%
  DNA/ribosomes relocalization: -, no: 47%
  Membrane: b, broken: 0%
  Membrane: i, intact: 100%
  Membrane: r, ruptured: 0%
  Ribosome clustering: +++, extremely clustered: 0%
  Ribosome clustering: ++, clustered: 0%
  Ribosome clustering: +, starting: 30%
  Ribosome clustering: -, no: 70%
  Vesicle release: 37%
  dissociated Fragments: ++, long and thin: 3%
  dissociated Fragments: +, small and thin: 0%
  dissociated Fragments: -, no: 97%
  dissociated Fragments: LV, large vesicles: 0%

## CC[C@H](C)[C@H](NC(=O)[C@H](CCCN)N=C(N(C)C)N(C)C)C(=O)N[C@@H](CCCN)C(=O)N[C@H](C(=O)N[C@@H](CCCN)C(=O)N[C@@H](CCCNC(=N)N)C(=O)N1CCC[C@H]1C(=O)N[C@H](C(=O)N[C@@H](Cc1ccc(O)cc1)C(=O)N[C@@H](CCCN)C(=O)N1CCC[C@H]1C(=O)N[C@@H](CCCNC(=N)N)C(=O)N1CCC[C@H]1C(=O)N[C@@H](CCCNC(=N)N)C(=O)N1CCC[C@H]1C(=O)N1CCC[C@H]1C(=O)N[C@@H](Cc1c[nH]cn1)C(=O)N1CCC[C@H]1C(=O)N[C@@H](CCCNC(=N)N)C(=O)N[C@@H](CC(C)C)C(=O)O)C(C)C)[C@@H](C)CC [Api795, gu-O(IO)2RPVYOPRPRPPHPRL-OH] ({Orn(α-tetramethylguanidino)}-I[Orn]I[Orn]RPVY[Orn]PRPRPPHPRL-OH)
In vitro; Half-life time against serum proteases, serum (abstract)
  half-life at 70 mg/L: > 5 h
In vitro; Half-life time mouse serum, 37°C
  half-life at 70 mg/L: 5.9 h
[1]; 2 μmol/L, DMPC:DMPG 4:1
  QCM Δf (peptide insertion): 9 Hz
[1]; 5, 10, and 20 μmol/L, DMPC:DMPG 4:1
  QCM Δf (peptide insertion): 6 Hz
P. aeruginosa DSM 1117; 4 µg/mL
  Cells spongy: 0%
  DNA/ribosomes relocalization: +++, extremely relocalized: 0%
  DNA/ribosomes relocalization: ++, relocalized: 23%
  DNA/ribosomes relocalization: +, starting: 37%
  DNA/ribosomes relocalization: -, no: 40%
  Membrane: b, broken: 0%
  Membrane: i, intact: 100%
  Membrane: r, ruptured: 0%
  Ribosome clustering: +++, extremely clustered: 0%
  Ribosome clustering: ++, clustered: 0%
  Ribosome clustering: +, starting: 70%
  Ribosome clustering: -, no: 30%
  Vesicle release: 67%
  dissociated Fragments: ++, long and thin: 3%
  dissociated Fragments: +, small and thin: 3%
  dissociated Fragments: -, no: 93%
  dissociated Fragments: LV, large vesicles: 0%
P. aeruginosa DSM 1117; 16 µg/mL
  Cells spongy: 0%
  DNA/ribosomes relocalization: +++, extremely relocalized: 0%
  DNA/ribosomes relocalization: ++, relocalized: 10%
  DNA/ribosomes relocalization: +, starting: 40%
  DNA/ribosomes relocalization: -, no: 50%
  Membrane: b, broken: 0%
  Membrane: i, intact: 100%
  Membrane: r, ruptured: 0%
  Ribosome clustering: +++, extremely clustered: 0%
  Ribosome clustering: ++, clustered: 0%
  Ribosome clustering: +, starting: 30%
  Ribosome clustering: -, no: 70%
  dissociated Fragments: ++, long and thin: 0%
  dissociated Fragments: +, small and thin: 0%
  dissociated Fragments: -, no: 100%
  dissociated Fragments: LV, large vesicles: 0%
P. aeruginosa DSM 1117; 64 µg/mL
  Cells spongy: 0%
  DNA/ribosomes relocalization: ++, relocalized: 67%
  DNA/ribosomes relocalization: +, starting: 10%
  DNA/ribosomes relocalization: -, no: 10%
  Membrane: b, broken: 10%
  Membrane: i, intact: 90%
  Membrane: r, ruptured: 3%
  Ribosome clustering: +++, extremely clustered: 7%
  Ribosome clustering: ++, clustered: 7%
  Ribosome clustering: +, starting: 77%
  Ribosome clustering: -, no: 10%
  Vesicle release: 50%
  dissociated Fragments: ++, long and thin: 3%
  dissociated Fragments: +, small and thin: 0%
  dissociated Fragments: -, no: 97%
  dissociated Fragments: LV, large vesicles: 0%
P. aeruginosa DSM 1117; 512 µg/mL
  Cells spongy: 10%
  DNA/ribosomes relocalization: +++, extremely relocalized: 100%
  DNA/ribosomes relocalization: ++, relocalized: 0%
  DNA/ribosomes relocalization: +, starting: 0%
  DNA/ribosomes relocalization: -, no: 0%
  Membrane: b, broken: 80%
  Membrane: i, intact: 20%
  Membrane: r, ruptured: 63%
  Ribosome clustering: +++, extremely clustered: 93%
  Ribosome clustering: ++, clustered: 7%
  Ribosome clustering: +, starting: 0%
  Ribosome clustering: -, no: 0%
  Vesicle release: 7%
  dissociated Fragments: +, small and thin: 0%
  dissociated Fragments: -, no: 87%
  dissociated Fragments: LV, large vesicles: 0%
  membranes ruptured, % of the cells: 80%
P. aeruginosa DSM 1117; 4 × MIC
  membranes ruptured, % of the cells: 10%
